pIC50: −log10 of the molar value. Read-outs that look alike come from different tables or passages of the source.
Legend:
[1] = target: T1, Ba/F3 cell-derived tumors with the EML4-ALK G1202R fusion (Homo sapiens, UniProt Q9UM73, G1202R); details: after 7 days of treatment
T1 sequence (Q9UM73 with tags, fused parts or gaps G1202R): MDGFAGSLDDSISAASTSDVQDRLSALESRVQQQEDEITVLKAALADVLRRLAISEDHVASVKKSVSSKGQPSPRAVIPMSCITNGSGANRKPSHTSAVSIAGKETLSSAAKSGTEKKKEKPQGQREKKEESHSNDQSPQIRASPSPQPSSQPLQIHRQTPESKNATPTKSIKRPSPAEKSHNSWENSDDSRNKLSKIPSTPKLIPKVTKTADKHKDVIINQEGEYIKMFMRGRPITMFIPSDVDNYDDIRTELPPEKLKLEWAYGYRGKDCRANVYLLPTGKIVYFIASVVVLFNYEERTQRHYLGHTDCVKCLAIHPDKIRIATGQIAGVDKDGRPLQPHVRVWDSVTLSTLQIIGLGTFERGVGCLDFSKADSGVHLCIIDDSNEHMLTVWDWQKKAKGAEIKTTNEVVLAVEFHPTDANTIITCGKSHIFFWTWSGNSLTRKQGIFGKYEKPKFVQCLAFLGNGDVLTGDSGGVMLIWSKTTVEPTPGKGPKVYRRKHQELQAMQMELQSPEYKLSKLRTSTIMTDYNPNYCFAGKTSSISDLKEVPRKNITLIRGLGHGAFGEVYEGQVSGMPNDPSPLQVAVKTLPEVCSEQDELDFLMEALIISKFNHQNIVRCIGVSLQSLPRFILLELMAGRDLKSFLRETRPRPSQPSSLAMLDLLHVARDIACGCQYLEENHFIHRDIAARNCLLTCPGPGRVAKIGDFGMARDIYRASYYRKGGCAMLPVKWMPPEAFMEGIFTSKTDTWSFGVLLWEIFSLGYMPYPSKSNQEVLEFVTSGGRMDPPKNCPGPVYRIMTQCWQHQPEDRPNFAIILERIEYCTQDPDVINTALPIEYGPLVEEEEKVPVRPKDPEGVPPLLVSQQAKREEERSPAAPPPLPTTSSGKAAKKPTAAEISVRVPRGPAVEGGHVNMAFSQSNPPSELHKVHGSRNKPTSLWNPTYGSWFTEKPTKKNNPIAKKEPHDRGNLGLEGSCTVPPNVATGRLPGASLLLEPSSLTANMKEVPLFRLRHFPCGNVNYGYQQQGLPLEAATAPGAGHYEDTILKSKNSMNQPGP

[2] = target: T2, ALK (L1196M) (Homo sapiens, UniProt Q9UM73, L1196M); test: Biochemical kinase assay (Reaction Biology); details: 10 μM ATP
T2 construct: purchased Reaction Biology Corporation (contract assay)

[3] = target: T3, ALK (F1174L) (Homo sapiens, UniProt Q9UM73, F1174L); test: Biochemical kinase assay (Reaction Biology); details: 10 μM ATP
T3 construct: purchased Reaction Biology Corporation (contract assay)

[4] = target: T4, ALK (L1198F/L1196M) (Homo sapiens, UniProt Q9UM73, L1196M/L1198F); test: Biochemical kinase assay (Reaction Biology); details: 10 μM ATP
T4 construct: purchased Reaction Biology Corporation (contract assay)

[5] = target: T5, ALK (D1203N) (Homo sapiens, UniProt Q9UM73, D1203N); test: Biochemical kinase assay (Reaction Biology); details: 10 μM ATP
T5 construct: purchased Reaction Biology Corporation (contract assay)

[6] = target: T6, ALK (E1210K) (Homo sapiens, UniProt Q9UM73, E1210K); test: Biochemical kinase assay (Reaction Biology); details: 10 μM ATP
T6 construct: purchased Reaction Biology Corporation (contract assay)

[7] = target: T7, ALK (L1198F) (Homo sapiens, UniProt Q9UM73, L1198F); test: Biochemical kinase assay (Reaction Biology); details: 10 μM ATP
T7 construct: purchased Reaction Biology Corporation (contract assay)

[8] = target: T8, ALK (E1210K/D1203N) (Homo sapiens, UniProt Q9UM73, D1203N/E1210K); test: Biochemical kinase assay (Reaction Biology); details: 10 μM ATP
T8 construct: purchased Reaction Biology Corporation (contract assay)

[9] = target: T9, ALK (R1275Q) (Homo sapiens, UniProt Q9UM73, R1275Q); test: Biochemical kinase assay (Reaction Biology); details: 10 μM ATP
T9 construct: purchased Reaction Biology Corporation (contract assay)

[10] = target: T10, ALK (L1152R) (Homo sapiens, UniProt Q9UM73, L1152R); test: Biochemical kinase assay (Reaction Biology); details: 10 μM ATP
T10 construct: purchased Reaction Biology Corporation (contract assay)

[11] = target: T11, ALK (F1174S) (Homo sapiens, UniProt Q9UM73, F1174S); test: Biochemical kinase assay (Reaction Biology); details: 10 μM ATP
T11 construct: purchased Reaction Biology Corporation (contract assay)

CC1(C)COc2ccc(F)cc2CN2c3nc4c(cnn4cc3OC[C@H]2C(F)F)C(=O)N1 [Compound 1, (4S)-4-(Difluoromethyl)-8-fluoro-13,13-dimethyl-3,4,13,14-tetrahydro-6H-18,1-(metheno)[1,4]oxazino[3,4-i]pyrazolo[4,3-f][1,4,8,10]benzoxatriazacyclotridecin-15(12H)-one]
Tumor growth inhibition (TGI) ([1]; 2 mg/kg BID oral): 64%
Tumor growth inhibition (TGI) ([1]; 5 mg/kg BID oral): 120%
Tumor growth inhibition (TGI) ([1]; 10 mg/kg BID oral): 200%
body weight ([1]; 2, 5, 10 mg/kg BID): no body weight loss

O=C1NCC2(CC2)COc2ccc(F)cc2CN2c3nc4c1cnn4cc3OC[C@H]2C(F)F [Compound 2, (16′S)-16′-(Difluoromethyl)-12′-fluoro-4′H,5′H,6′H,8′H,14′H,16′H,17′H-spiro[cyclopropane-1,7′-[1,19](metheno)[1,4]oxazino[3,4-j]pyrazolo[4,3-g][1,5,9,11]benzoxatriazacyclotetradecin]-4′-one]
pIC50 [2]: 9.74
pIC50 [3]: 9.38
pIC50 [4]: 10.00
pIC50 [5]: 8.54
Tumor growth inhibition (TGI) ([1]; 3 mg/kg BID oral): 51%
Tumor growth inhibition (TGI) ([1]; 10 mg/kg BID oral): 77%
body weight ([1]; 3 and 10 mg/kg BID): no body weight loss
pIC50 [6]: 9.68
pIC50 [7]: 9.07
pIC50 [8]: 8.40
pIC50 [9]: 9.14
pIC50 [10]: 9.08
pIC50 [11]: 9.12

From patent US11142533B2, “Macrocycles for use in treating disease” (TURNING POINT THERAPEUTICS, INC., priority 2019, dated 2021)
